{"source": "patent US20220299500A1", "about": "“NDUFS2 SUBUNIT KNOCKOUT HUMAN CELL LINE” (priority 2019, published 2022)", "format_in_all_cases": "cell-based, human", "key": {"[1]": {"test_system": "mutant HEK293ΔNDUFS2", "assay": "ATP synthesis of mutant cells grown with therapeutics, Mitochondrial ToxGlo Assay", "details": "for amount of ATP compared to mutant cells treated with DMSO: day 6, luminescence normalized to DMSO control; for restoration of ATP synthesis defects of the mutant: concentration not given", "experimental": "(§1) ATP synthesis and cell-membrane integrity of strains. Potential mitochondrial dysfunction of strains was assessed by using the Mitochondrial ToxGlo Assay (Promega Corporation, Madison, Wis.), according to the procedure described by the manufacturer. This assay is based on the measurements of biomarkers associated with changes in cell membrane integrity and cellular ATP levels. Briefly, the parent and mutant cells grown in flasks were harvested by trypsinization and resuspended in fresh medium. Approximately 10,000 cells/well were added to a 96-well plate and incubated overnight. A working stock of antimycin A, which is a mitochondrial toxin (complex III inhibitor) was prepared at a concentration of 150 μM in a glucose-free DMEM medium (Sigma-Aldrich) supplemented with 10 mM galactose (Sigma-Aldrich). Serial dilutions of the mitochondrial toxin were prepared in a separate 96-well plate (in galactose containing medium). Overnight grown cells were washed with glucose-free galactose containing medium, and fresh (galactose containing medium) was added into wells at 50 μl/well. Fifty μl volumes of the serial dilutions of toxin were transferred from the stock plate to the wells in cell culture plate. The wells carrying the vehicle controls received the medium with no toxin. The plate was incubated at 37° C. for 90 min. Twenty μl volumes of 5× Cytotoxicity Reagent were added to each well, the plate was incubated at 37° C. for further 30 min, and the fluorescence was measured at 475 nmEX/500-550 nmEM, by using a Glomax Discover plate reader (Promega Corporation). The assay plate was equilibrated to room temperature, 100 μl ATP Detection Reagent was added to each well, and luminescence was measured by using the same plate reader.\nRestoring (rescuing) the altered/lost phenotypes of the mutant with the use of potential complex I therapeutics. Effectiveness of the potential complex I therapeutics in restoring the metabolic defects of the mutant HEK293ΔNDUFS2 was evaluated. For this purpose, the mutant cells were treated with the therapeutic idebenone or its analog SBT-220 and change in ATP synthesis was examined. In this procedure, the mutant cells were suspended in culture media supplemented with 0, 1, or 10 μM of idebenone, conjugate SBT-220, conjugate SBT-222, or elamipretide, and plated in 96 well plates at 2,000 cells/well. Cells suspended in DMSO served as controls. Fresh media (with or without therapeutics) were added on days 0, 3 and 5. Cellular ATP synthesis was assessed on day 6 of incubation by using the Mitochondrial ToxGlo Assay, as described above. The responses of ATP synthesis in the treatment groups were normalized to that of the control group.\n(§2) Restoring (rescuing) the impaired growth and respiration the mutant. Effectiveness of the potential Complex I therapeutic idebenone in restoring the ATP synthesis defects of the mutant HEK293ΔNDUFS2 was evaluated. In this procedure, mutant cells were cultured in media supplemented with 1 μM of idebenone in 96-well plates at 2,000 cells/well. Fresh media (with or without the therapeutic) were added on days 0, 3 and 5. Cellular ATP pool was assessed on day 6 of incubation by Mitochondrial ToxGlo Assay. Mutant cells were also cultured in 6-well plates at 2000 cells/well in medium supplemented 0.5, 1, 5, or 10 μM of idebenone. Fresh media containing the drug was added on days 3, 6 and 9, and the cell counts in wells of triplicates was determined following 10 days incubation. Efficacy of idebenone in improving respiration of permeabilized mutant cells was measured by O2k respirometry as described above with the following modification: subsequent to glutamate+malate injection, idebenone was injected into chambers at 1 μM final concentration. The control groups received DMSO."}, "[2]": {"test_system": "mutant HEK293ΔNDUFS2", "assay": "Cell growth of mutant cultures treated for 10 days (cell counts)", "experimental": "as §2"}, "[3]": {"test_system": "permeabilized mutant HEK293ΔNDUFS2 cells", "assay": "Oxygen consumption of permeabilized mutant cells, Oroboros O2k respirometry", "experimental": "Mitochondrial respiration measurements with Oroboros O2K respirometry. Oxygen consumption rate (OCR) of strains was determined using protocols described elsewhere (Alleman R J, et al. Am J Physiol Heart Circ Physiol 2016, 310(10):H1360-1370; Goswami I, et al. Biophys J 2018, 114(12):2951-2964). Briefly, the parent type HEK293 and the mutant HEK293ΔNDUFS2 grown for eight days in 225 cm^2 flasks for 75-80% confluence were harvested by treatment with trypsin-EDTA, centrifuged at 300×g for 3 min, and resuspended in assay buffer Z (105 mM 2-(N-Morpholino)ethanesulfonic acid potassium salt, 30 mM KCl, 10 mM KH2PO4, 5 mM MgCl2-6H2O, 0.5 mg/mL bovine serum albumin, 20 mM creatine, 1 mM EGTA [pH 7.1] in dH2O). Approximately one million cells in 2 ml volumes were then introduced into the Oroboros O2K respiration chamber, which is equipped with calibrated oxygen measuring polarographic sensors. The oxygen signals were allowed to stabilize before closing the chamber to the outside air while chamber temperature was maintained at 37° C. Subsequently, the OCR was recorded after injection with none (basal), 2 mM of malate plus 10 mM glutamate (G/M), 5 mM of adenosine diphosphate (ADP), and 1.0 μM protonophore Carbonyl cyanide 4-(trifluoromethoxy)phenylhydrazone (FCCP).\nCell growth and metabolism. To measure the cell proliferation of parent HEK293 and mutant HEK293ΔNDUFS2, aliquots of 50,000 cells were introduced into 75 cm^2 flasks each carrying 25 ml growth media and cell numbers were quantified in triplicates after 4 and 6 days of incubation. Extracellular Acidification Rate (ECAR) was determined with an Agilent Seahorse XFe96 analyzer (Ryall J G. Methods Mol Biol 2017, 1556:245-253). Cellular ATP pool and cell-membrane porousness were measured using Mitochondrial ToxGlo Assay (Promega Corporation, Madison, Wis.). Oxygen consumption of saponin-permeabilized cells (Hahn D, et al. Am J Physiol Cell Physiol 2019, 317(4):C665-C673) was measured by Oroboros O2k respirometry (Alleman R J, et al. Am J Physiol Heart Circ Physiol 2016, 310(10):H1360-1370; Goswami I, et al. Biophys J 2018, 114(12):2951-2964).\nas §2"}, "[4]": {"test_system": "mutant HEK293ΔNDUFS2", "assay": "Cell-membrane porousness in presence of respiratory inhibitor, Mitochondrial ToxGlo Assay", "experimental": "as §1"}, "[5]": {"test_system": "parent HEK293", "assay": "Cell-membrane porousness in presence of respiratory inhibitor, Mitochondrial ToxGlo Assay", "details": "Antimycin A added to reaction medium", "experimental": "as §1"}, "[6]": {"test_system": "mutant HEK293ΔNDUFS2", "assay": "ATP synthesis in presence of respiratory inhibitor, Mitochondrial ToxGlo Assay", "details": "Antimycin A added to reaction media", "experimental": "as §1"}, "[7]": {"test_system": "parent HEK293", "assay": "ATP synthesis in presence of respiratory inhibitor, Mitochondrial ToxGlo Assay", "details": "Antimycin A added to reaction media, 90 min", "experimental": "as §1"}, "[8]": {"details": "1 μM final concentration, vs DMSO"}}, "note": "“Also recorded” adds a separate entry of the source."}
{"compound": "COC1=C(OC)C(=O)C(CCCCCCCCCCO)=C(C)C1=O", "note": "[idebenone]", "values": [{"measurement": "amount of ATP compared to mutant cells treated with DMSO", "setting": "[1]; 1 μM", "result": 2.4, "unit": "folds"}, {"measurement": "restoration of ATP synthesis / ATP pool of the mutant", "setting": "[1]; 1 μM, long-term treatment (six days)", "result": "restored the ATP synthesis of the mutant to some extent; also recorded: significantly greater amount of ATP; also recorded: improved ATP pool"}, {"measurement": "improvement of ATP synthesis defects of the mutant", "setting": "[1]; 10 μM", "result": "failed to improve"}, {"measurement": "restoration of ATP synthesis defects of the mutant", "setting": "[1]", "result": "partially restored"}, {"measurement": "more cells recovered compared to the DMSO control", "setting": "[2]; 0.5 μM, 10 days", "result": 32.1, "unit": "%"}, {"measurement": "cell proliferation", "setting": "[2]; 0.5 μM, long-term treatment", "result": "enhanced cell proliferation"}, {"measurement": "growth of the mutant", "setting": "[2]; 1 μM, 10 days", "result": "did not improve growth"}, {"measurement": "growth of the mutant", "setting": "[2]; 5 μM, 10 days", "result": "did not improve growth"}, {"measurement": "effect on mutant cells in growth test", "setting": "[2]; 10 μM, 10 days", "result": "caused cell death"}, {"measurement": "Complex I respiration", "setting": "[3]; 1 μM final concentration injected after glutamate+malate, vs DMSO", "result": "improved significantly"}, {"measurement": "Complex II respiration", "setting": "[3]; [8]", "result": "improved significantly"}, {"measurement": "OXPHOS capacity", "setting": "[3]; [8]", "result": "improved significantly"}, {"measurement": "maximal respiration", "setting": "[3]; [8]", "result": "improved significantly"}, {"measurement": "oxygen consumption all along the ETC", "setting": "[3]; idebenone treatment vs DMSO", "result": "improved oxygen consumption all along the ETC"}]}
{"compound": "Antimycin A", "values": [{"measurement": "membrane porousness", "setting": "[4]; Antimycin A added to reaction medium", "result": "more porous"}, {"measurement": "cell membrane porousness of the mutant relative to the parent", "setting": "[4]; as a result of antimycin A treatment", "result": "up to 4.5 folds"}, {"measurement": "membrane porousness", "setting": "[5]", "result": "more porous"}, {"measurement": "decline of ATP synthesis in the mutant compared to the parent", "setting": "[6]", "result": "up to 2.2 folds"}, {"measurement": "ATP synthesis ability", "setting": "[6]; 90 min", "result": "declined drastically"}, {"measurement": "ATP synthesis ability", "setting": "[7]", "result": "declined drastically"}]}
{"compound": "elamipretide", "values": [{"measurement": "amount of ATP compared to mutant cells treated with DMSO", "setting": "[1]; 1 μM", "result": 2.1, "unit": "folds"}, {"measurement": "restoration of ATP synthesis defects of the mutant", "setting": "[1]", "result": "partially restored"}]}
